Assay results reported in patent US10723723B2, “Substituted bicycle heterocyclic derivatives useful as ROMK channel inhibitors” (BRISTOL-MYERS SQUIBB COMPANY, priority 2016, dated 2020).

Columns and labels:
hROMK (human Kir1.1) = hROMK (human Kir1.1) (Homo sapiens (Human), UniProt P48048); experiment: Thallium Flux Assay (FluxOR, CHO T-Rex hROMK stable cell line); format: cell-based; details: CHO T-Rex hROMK cells, 10-point concentration response curve; read-out: Human ROMK TH Flux IC50
hERG channels = hERG channels (Homo sapiens (Human), UniProt Q12809); experiment: hERG Manual Patch Clamp Assay (HEK 293 cells stably expressing hERG channels); format: cell-based; details: human, HEK 293 cells stably expressing hERG channels, pH 7.4
hERG channels, sequence (Q12809 whole entry): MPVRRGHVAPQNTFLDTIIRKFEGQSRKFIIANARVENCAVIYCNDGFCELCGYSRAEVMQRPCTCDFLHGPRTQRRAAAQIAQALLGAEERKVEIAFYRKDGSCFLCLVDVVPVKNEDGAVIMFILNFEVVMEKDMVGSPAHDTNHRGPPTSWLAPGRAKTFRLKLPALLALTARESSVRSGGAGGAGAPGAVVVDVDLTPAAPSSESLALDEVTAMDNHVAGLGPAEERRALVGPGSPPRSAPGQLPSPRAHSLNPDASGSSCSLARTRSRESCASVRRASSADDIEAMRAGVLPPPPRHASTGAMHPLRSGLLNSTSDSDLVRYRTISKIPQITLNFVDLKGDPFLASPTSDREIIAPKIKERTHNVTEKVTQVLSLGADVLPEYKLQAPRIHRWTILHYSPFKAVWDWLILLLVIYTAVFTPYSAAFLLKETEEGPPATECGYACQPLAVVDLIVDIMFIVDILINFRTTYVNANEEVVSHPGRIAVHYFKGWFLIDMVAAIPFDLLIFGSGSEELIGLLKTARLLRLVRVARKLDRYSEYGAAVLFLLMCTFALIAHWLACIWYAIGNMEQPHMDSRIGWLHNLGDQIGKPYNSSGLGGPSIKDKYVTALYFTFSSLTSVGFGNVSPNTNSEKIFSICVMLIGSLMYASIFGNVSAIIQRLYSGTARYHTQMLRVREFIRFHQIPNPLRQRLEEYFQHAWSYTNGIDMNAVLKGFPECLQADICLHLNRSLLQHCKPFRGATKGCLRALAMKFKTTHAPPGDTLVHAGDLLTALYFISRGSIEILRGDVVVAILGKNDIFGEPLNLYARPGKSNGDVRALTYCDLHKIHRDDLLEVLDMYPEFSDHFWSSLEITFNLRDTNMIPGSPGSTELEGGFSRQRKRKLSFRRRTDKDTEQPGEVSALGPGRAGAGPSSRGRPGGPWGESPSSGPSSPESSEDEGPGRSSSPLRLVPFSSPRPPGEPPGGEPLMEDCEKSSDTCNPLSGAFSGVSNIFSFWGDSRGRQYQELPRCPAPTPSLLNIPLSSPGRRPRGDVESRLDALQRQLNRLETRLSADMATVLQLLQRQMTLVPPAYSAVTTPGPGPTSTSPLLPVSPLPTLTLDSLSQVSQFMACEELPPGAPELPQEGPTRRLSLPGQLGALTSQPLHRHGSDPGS

hROMK (human Kir1.1), sequence (P48048 whole entry): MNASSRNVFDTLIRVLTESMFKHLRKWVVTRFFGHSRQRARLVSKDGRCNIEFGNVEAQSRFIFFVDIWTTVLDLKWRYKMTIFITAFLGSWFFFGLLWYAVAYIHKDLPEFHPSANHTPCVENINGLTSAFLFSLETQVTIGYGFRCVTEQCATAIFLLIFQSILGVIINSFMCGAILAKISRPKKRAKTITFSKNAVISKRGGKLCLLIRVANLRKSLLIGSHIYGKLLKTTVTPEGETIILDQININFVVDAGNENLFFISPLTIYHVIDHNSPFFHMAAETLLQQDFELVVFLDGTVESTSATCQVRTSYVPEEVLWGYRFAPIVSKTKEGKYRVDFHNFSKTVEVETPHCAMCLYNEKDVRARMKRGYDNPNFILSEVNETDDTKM

Compound	IC50 (hROMK (human Kir1.1)) [µM]	inhibition at 1 µM (hERG channels) [%]
COc1nc(-n2cc(CNC[C@H](O)c3ccc4c(c3C)COC4=O)cn2)cc(C)c1C#N [Example 72, (R)-6-(4-(((2-hydroxy-2-(4-methyl-1-oxo-1,3-dihydroisobenzofuran-5-yl)ethyl)amino)methyl)-1H-pyrazol-1-yl)-2-methoxy-4-methylnicotinonitrile]	0.014	35
Cc1cc(-n2cc(CNC[C@H](O)c3ccc4c(c3C)COC4=O)cn2)cnc1C#N [Example 73, (R)-5-(4-(((2-hydroxy-2-(4-methyl-1-oxo-1,3-dihydroisobenzofuran-5-yl)ethyl)amino)methyl)-1H-pyrazol-1-yl)-3-methylpicolinonitrile]	0.036	31
Cc1cc(-n2cc(CNC[C@H](O)c3ccc4c(c3C)COC4=O)c(C)n2)ncc1C#N [Example 74, (R)-6-(4-(((2-hydroxy-2-(4-methyl-1-oxo-1,3-dihydroisobenzofuran-5-yl)ethyl)amino)methyl)-3-methyl-1H-pyrazol-1-yl)-4-methylnicotinonitrile]	0.059	32
Cc1c([C@@H](O)CNCc2cnn(-c3ccc4c(c3C)COC4=O)c2)ccc2c1COC2=O [Example 75, (R)-5-(1-hydroxy-2-(((1-(4-methyl-1-oxo-1,3-dihydroisobenzofuran-5-yl)-1H-pyrazol-4-yl)methyl)amino)ethyl)-4-methylisobenzofuran-1(3H)-one]	0.065	4.3
COc1cc(-c2ccc(CNC[C@H](O)c3ccc4c(c3C)COC4=O)c(OC)n2)ncc1C#N [Example 82, (R)-5′-(((2-hydroxy-2-(4-methyl-1-oxo-1,3-dihydroisobenzofuran-5-yl)ethyl)amino)methyl)-4,6′-dimethoxy-[2,2′-bipyridine]-5-carbonitrile]	0.031	44
Cc1ncn(-c2ncc(CNC[C@H](O)c3ccc4c(c3C)COC4=O)cn2)c1C [Example 88, (R)-5-(2-(((2-(4,5-dimethyl-1H-imidazol-1-yl)pyrimidin-5-yl)methyl)amino)-1-hydroxyethyl)-4-methylisobenzofuran-1(3H)-one]	0.042	3.6
Cc1cn(-c2ccc(CNC[C@H](O)c3ccc4c(c3C)COC4=O)cn2)nc1C#N [Example 92, (R)-1-(5-(((2-hydroxy-2-(4-methyl-1-oxo-1,3-dihydroisobenzofuran-5-yl)ethyl)amino)methyl)pyridin-2-yl)-4-methyl-1H-pyrazole-3-carbonitrile]	0.0064	24
Cc1cc(-n2cc(CNC[C@H](O)c3ccc4c(c3C)COC4=O)c(C(F)F)n2)ncc1C#N [Example 93, (R)-6-(3-(difluoromethyl)-4-(((2-hydroxy-2-(4-methyl-1-oxo-1,3-dihydroisobenzofuran-5-yl)ethyl)amino)methyl)-1H-pyrazol-1-yl)-4-methylnicotinonitrile]	0.015	29
Cc1cn(-c2ncc(CNC[C@H](O)c3ccc4c(c3C)COC4=O)cn2)nc1C#N [Example 94, (R)-1-(5-(((2-hydroxy-2-(4-methyl-1-oxo-1,3-dihydroisobenzofuran-5-yl)ethyl)amino)methyl)pyrimidin-2-yl)-4-methyl-1H-pyrazole-3-carbonitrile]	0.056	13
Cc1c([C@@H](O)CNCc2cn(-c3ccc4oc(=O)n(C)c4c3)nc2C(F)(F)F)ccc2c1COC2=O [Example 95, (R)-5-(4-(((2-hydroxy-2-(4-methyl-1-oxo-1,3-dihydroisobenzofuran-5-yl)ethyl)amino)methyl)-3-(trifluoromethyl)-1H-pyrazol-1-yl)-3-methylbenzo[d]oxazol-2(3H)-one]	0.056	11
Cc1c([C@@H](O)CNCc2cnc(-n3cnc(C(F)(F)F)c3)nc2)ccc2c1COC2=O [Example 96, (R)-5-(1-hydroxy-2-(((2-(4-(trifluoromethyl)-1H-imidazol-1-yl)pyrimidin-5-yl)methyl)amino)ethyl)-4-methylisobenzofuran-1(3H)-one]	0.062	19
COc1nn(-c2ccc(CNC[C@H](O)c3ccc4c(c3C)COC4=O)cn2)cc1C#N [Example 104, (R)-1-(5-(((2-hydroxy-2-(4-methyl-1-oxo-1,3-dihydroisobenzofuran-5-yl)ethyl)amino)methyl)pyridin-2-yl)-3-methoxy-1H-pyrazole-4-carbonitrile]	0.0094	42
Cc1c([C@@H](O)CNCc2ccc(-n3ccnc3)nc2)ccc2c1COC2=O [Example 109, (R)-5-(2-(((6-(1H-imidazol-1-yl)pyridin-3-yl)methyl)amino)-1-hydroxyethyl)-4-methylisobenzofuran-1(3H)-one]	0.04	12
Cc1c([C@@H](O)CNCc2cnc(-n3cc(C#N)c(C(F)(F)F)n3)nc2)ccc2c1COC2=O [Example 110, (R)-1-(5-(((2-hydroxy-2-(4-methyl-1-oxo-1,3-dihydroisobenzofuran-5-yl)ethyl)amino)methyl)pyrimidin-2-yl)-3-(trifluoromethyl)-1H-pyrazole-4-carbonitrile]	0.042	13
Cc1ncc(-c2ccc(CNC[C@H](O)c3ccc4c(c3C)COC4=O)cn2)s1 [Example 111, (R)-5-(1-hydroxy-2-(((6-(2-methylthiazol-5-yl)pyridin-3-yl)methyl)amino)ethyl)-4-methylisobenzofuran-1(3H)-one]	0.048	69
COc1cc(-n2cc(CNC[C@H](O)c3ccc4c(c3C)COC4=O)cn2)cc2c1oc(=O)n2C [Example 112, (R)-5-(4-(((2-hydroxy-2-(4-methyl-1-oxo-1,3-di-Hydroisobenzofuran-5-yl)ethyl)amino)methyl)-1H-pyrazol-1-yl)-7-methoxy-3-mthylbenzo[d]oxazol-2(3H)-one]	0.066	4.2
COc1nn(-c2ncc(CNC[C@H](O)c3ccc4c(c3C)COC4=O)cn2)cc1C#N [Example 113, (R)-1-(5-(((2-hydroxy-2-(4-methyl-1-oxo-1,3-dihydroisobenzofuran-5-yl)ethyl)amino)methyl)pyrimidin-2-yl)-3-methoxy-1H-pyrazole-4-carbonitrile]	0.014	12
CCc1nn(-c2ncc(CNC[C@H](O)c3ccc4c(c3C)COC4=O)cn2)cc1C#N [Example 114, (R)-3-ethyl-1-(5-(((2-hydroxy-2-(4-methyl-1-oxo-1,3-dihydroisobenzofuran-5-yl)ethyl)amino)methyl)pyrimidin-2-yl)-1H-pyrazole-4-carbonitrile]	0.017	25
Cc1c([C@@H](O)CNCc2cnc(-n3cc(C#N)c(C4CC4)n3)nc2)ccc2c1COC2=O [Example 117, (R)-3-cyclopropyl-1-(5-(((2-hydroxy-2-(4-methyl-1-oxo-1,3-dihydroisobenzofuran-5-yl)ethyl)amino)methyl)pyrimidin-2-yl)-1H-pyrazole-4-carbonitrile]	0.024	32
Cc1cn(-c2ccc(CNC[C@H](O)c3ccc4c(c3C)COC4=O)cn2)nn1 [Example 118, (R)-5-(1-hydroxy-2-(((6-(4-methyl-1H-1,2,3-triazol-1-yl)pyridin-3-yl)methyl)amino)ethyl)-4-methylisobenzofuran-1(3H)-one]	0.07	16
Cc1cc(-c2ncc(CNC[C@H](O)c3ccc4c(c3C)COC4=O)s2)ncc1C#N [Example 128, (R)-6-(5-(((2-hydroxy-2-(4-methyl-1-oxo-1,3-dihydroisobenzofuran-5-yl)ethyl)amino)methyl)thiazol-2-yl)-4-methylnicotinonitrile]	0.0066	22
Cc1c([C@@H](O)CNCc2ccc(-n3cnc(C#N)c3)nc2)ccc2c1COC2=O [Example 131, (R)-1-(5-(((2-hydroxy-2-(4-methyl-1-oxo-1,3-dihydroisobenzofuran-5-yl)ethyl)amino)methyl)pyridin-2-yl)-1H-imidazole-4-carbonitrile]	0.0092	79
Cc1c([C@@H](O)CNCc2ccc(-n3cnc(C#N)n3)nc2)ccc2c1COC2=O [Example 132, (R)-1-(5-(((2-hydroxy-2-(4-methyl-1-oxo-1,3-dihydroisobenzofuran-5-yl)ethyl)amino)methyl)pyridin-2-yl)-1H-1,2,4-triazole-3-carbonitrile]	0.026	61
Cc1c([C@@H](O)CNCc2cccc(-c3ccc4oc(=O)n(C)c4c3)n2)ccc2c1COC2=O [Example 133, (R)-5-(6-(((2-hydroxy-2-(4-methyl-1-oxo-1,3-dihydroisobenzofuran-5-yl)ethyl)amino)methyl)pyridin-2-yl)-3-methylbenzo[d]oxazol-2(3H)-one]	0.9	59
COc1cc(-c2ncc(CNC[C@H](O)c3ccc4c(c3C)COC4=O)cn2)ncc1C#N [Example 134, (R)-6-(5-(((2-hydroxy-2-(4-methyl-1-oxo-1,3-dihydroisobenzofuran-5-yl)ethyl)amino)methyl)pyrimidin-2-yl)-4-methoxynicotinonitrile]	0.077	3.8
CCN(Cc1ccc(-c2ccc3oc(=O)n(C)c3c2)nc1)C[C@H](O)c1ccc2c(c1C)COC2=O [Example 135, (R)-5-(5-((ethyl(2-hydroxy-2-(4-methyl-1-oxo-1,3-dihydroisobenzofuran-5-yl)ethyl)amino)methyl)pyridin-2-yl)-3-methylbenzo[d]oxazol-2(3H)-one]	0.067	51
CNc1cc(-n2cc(CNC[C@H](O)c3ccc4c(c3C)COC4=O)cn2)ncc1C#N [Example 146, (R)-6-(4-(((2-hydroxy-2-(4-methyl-1-oxo-1,3-dihydroisobenzofuran-5-yl)ethyl)amino)methyl)-1H-pyrazol-1-yl)-4-(methylamino)nicotinonitrile]	0.025	61
